Publication PMC11472058, “Trinucleotide cap analogs with triphosphate chain modifications: synthesis, properties, and evaluation as mRNA capping reagents” (Nucleic Acids Research, 2024)

Legend:
Human Dcp2 = target: T1, Human Dcp2 (Homo sapiens, UniProt Q8IU60); assay: RNA decapping assay with recombinant hDcp2; format: biochemical; conditions: for Susceptibility to hDcp2 (@30 min): fraction of decapped RNA after 30 min of incubation with hDcp2, 27-nt RNA capped with the analog, 37 °C, triplicates ± SD
T1 construct: made in house; host or cells: E. coli
Description: Human Dcp2 was expressed in E. coli and purified as described previously ([52]). Short 27 nt-capped RNAs (24.2 ng) were diluted with decapping buffer (50 mM Tris–HCl pH 8.0, 50 mM NH4Cl, 0.01% NP-40, 1 mM DTT, 5 mM MgCl2 and 2 mM MnCl2; 2.9 μl of freshly prepared 10 × Buffer) and the final volume was adjusted to 29 μl with ultrapure RNase free water. 4.2 ng (5 μl) of the solution was taken out as time zero reference and diluted with 5 μl loading dye (5 M urea, 44% formamide, 20 mM EDTA, 0.03% bromophenol blue, 0.03% xylene cyanol). The remaining RNAs (20 ng/24 μl) were subjected to 10 nM hDcp2 (250 nM, 1 μl) and the mixtures were incubated at 37°C for 1 h. At defined time points (5, 15, 30 and 60 min), 4 ng of RNA (5 μl) were taken out and the reactions were quenched by adding an equal volume of loading dye. RNAs were resolved electrophoretically on denaturing 15% acrylamide:bisacrylamide 19:1/7 M urea/1 × TBE gel, stained with SYBR Gold (Invitrogen) and visualized using a Typhoon FLA 9500 (GE Healthcare). The decapping progress was determined for each time point by densitometry analysis of the gels, as a ratio between the intensity of the band corresponding to capped RNA and the sum of the intensity of bands from capped and uncapped RNAs. The percentages of remaining capped RNA were then plotted as a function of time.
The RNAs used to determine the capping efficiencies were also useful to study the susceptibility of capped RNA to decapping by hDcp2, the catalytic subunit of the major human mRNA decapping complex Dcp1/Dcp2, which releases m^7GDP and 5′-monophosphorylated RNA (in this case the 26-nt pApG-RNA24; Figure 4C). The progress of decapping at different time points (5, 15, 30 and 60 min) was monitored by HR-PAGE followed by densitometric analysis of the gels (Figure 4C, triplicates of gels are shown in Supplementary Figure S2), and the fraction of remaining capped RNA (27-nt) was plotted as a function of time (Figure 4D-G). […] For better visualization, the data of modified capped RNAs were grouped according to the type of modification present at the 5′ end and presented in separate graphs (Figure 4E–G). To quantify the relative susceptibility to hDcp2, we compared the decapping levels at the 30 min time point (Table 1). For RNAs capped with β-S-triphosphate analogs (1–6, Figure 4E, Table 1), we observed a significant difference in susceptibility to hDcp2 between RP and SP isomers, independent of the methylation pattern.

human eIF4E1a = target: T2, human eIF4E1a (Homo sapiens, UniProt P06730); assay: Fluorescence quenching titration (FQT) binding assay with eIF4E; conditions: for Kd: fluorescence quenching titration, 20 °C, pH 7.2, average of triplicates ± SD, read-out: heIF4E1a KD
T2 construct: made in house; host or cells: E. coli Rosetta 2 (DE3)pLysS
T2 sequence (P06730 whole entry): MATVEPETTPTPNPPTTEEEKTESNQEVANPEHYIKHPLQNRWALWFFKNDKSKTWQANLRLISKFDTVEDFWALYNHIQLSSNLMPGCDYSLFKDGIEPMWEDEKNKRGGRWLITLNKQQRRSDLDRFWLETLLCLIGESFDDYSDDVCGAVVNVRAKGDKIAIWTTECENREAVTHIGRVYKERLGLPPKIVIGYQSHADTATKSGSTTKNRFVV
Description: The human eIF4E1a protein was expressed without affinity tag in E. coli Rosseta 2 (DE3)pLysS strain (Novagen) under conditions leading to accumulation of the produced protein in inclusion bodies ([48]). The protein was extracted from inclusion bodies with buffer containing 6 M guanidine hydrochloride, refolded by one-step dialysis against 50 mM HEPES/KOH (pH 7.2), 100 mM KCl, 0.5 mM EDTA, 2 mM DTT, and purified by ion exchange chromatography on HiTrap SP HP 5 ml column (GE Healthcare) using salts gradient. Finally, protein was filtered using Ultrafree MC-HV Centrifugal PVDF filters with 0.45 μm membrane pore (Millipore) to remove protein aggregates and its concentration was determined spectrophotometrically assuming the theoretical extinction coefficient ϵ280nm = 52 940 L mol^−1cm^−1—calculated from amino acid composition using algorithm on ExPASy Server.
Fluorescence titration measurements were carried out on a LS-55 spectrofluorometer (Perkin Elmer Co., Norwalk, CT, USA) in a quartz semi-micro cuvette (Hellma, Germany) with optical lengths 4 mm and 10 mm for absorption and emission, respectively, which was thermostated at 20.0 ± 0.2 °C. The titrations were performed in 50 mM Hepes/KOH pH 7.2, 100 mM KCl, 0.5 mM EDTA and 1 mM DTT by adding 1 μl aliquots of increasing concentrations of the cap solutions to 1.4 ml of 0.1 μM eIF4E1a solution. The eIF4E1a fluorescence was excited at 280 nm and the fluorescence intensity was monitored at a single wavelength 340 nm. The measured fluorescence intensities were corrected for dilution (<4%) and for the inner filter effect. Association equilibrium constants (Kas) were obtained by fitting the theoretical curve for fluorescence intensity (F) upon total concentration of cap analogs ([L]) to the titration data according to the equation: […]
with the concentration of the cap analogs–eIF4E1a complex [cx] given by:
where Δϕ stands for the difference between the fluorescence efficiencies of the apo- and cap analog bound proteins; ϕlig-free is the fluorescence efficiency of the free cap analog; F(0) is the initial fluorescence, and Pact is the total concentration of the active protein ([49]). The final KAS values were calculated as a weighted average from three independent titrations and represented as the KD values. Numerical least-squares nonlinear regression analysis was performed using ORIGIN 2021 from Microcal Software Inc., USA.
Recognition of the mRNA 5′ cap by translation initiation factor 4E (eIF4E) is considered to be the rate-limiting step for the entire translation process ([63],[64]), therefore we investigated the affinity of novel trinucleotide cap analogs to the canonical human eIF4E1a protein by fluorescence quenching titration (FQT; Table 1 column 1, Figure 3) ([65]). As a reference, we determined the dissociation constant between heIF4E1a and the trinucleotide cap-1 structure m^7GpppAmpG, which was equal to 42 nM and very close to the analogous value previously determined for mouse Δ27NeIF4E (46 nM) ([12]). In the case of all modifications tested, the KD values for cap-heIF4E1a complexes are consistent with the results previously obtained for dinucleotide counterparts and murine eIF4E protein, although the magnitude of the modification effect is generally lower. The most tightly bound tetraphosphate analogs (compounds 10–12) show KD values of 6–7 nM, which means that their affinity is about 6-fold higher compared to the triphosphate counterparts. The affinities decrease upon CH2 or CCl2 modification of the tetraphosphate bridge (compounds 13–16), but they are still 4–5 times higher than for the triphosphate analogs with the same adenosine methylation pattern.

Compound	Susceptibility to hDcp2 (@30 min) (Human Dcp2)	effect of modification on binding affinity for heIF4E1a (in words) (human eIF4E1a; compared to corresponding triphosphates)	Kd (human eIF4E1a) [µM]	susceptibility of capped RNA to decapping by hDcp2 (in words) (Human Dcp2; 27-nt capped RNA, up to 60 min)
C[n+]1cn([C@@H]2O[C@H](COP(=O)(O)OP(=O)(O)OP(=O)([O-])SC[C@H]3O[C@@H](n4cnc5c(N)ncnc54)[C@H](O)[C@@H]3OP(=O)(O)OC[C@H]3O[C@@H](n4cnc5c(=O)[nH]c(N)nc54)[C@H](O)[C@@H]3O)[C@@H](O)[C@H]2O)c2nc(N)nc(O)c21 [Compound 7, m^7Gppp^5’SApG]	0.60 ± 0.15	virtually no effect on binding affinity	0.0314 ± 0.0019	
COC1C(OP(=O)(O)OCC2OC(n3cnc4c(=O)[nH]c(N)nc43)C(O)C2O)C(COP(=O)(O)OP(=O)([S-])OP(=O)(O)OCC2OC(n3c[n+](C)c4c(O)nc(N)nc43)C(O)C2O)OC1n1cnc2c(N)ncnc21 (stereo not shown) [Compound 3, m^7GppSpAmpG]	0.82 ± 0.09		0.014 ± 0.0008	
CO[C@@H]1[C@H](OP(=O)(O)OC[C@H]2O[C@@H](n3cnc4c(=O)[nH]c(N)nc43)[C@H](O)[C@@H]2O)[C@@H](COP(=O)([O-])OP(=O)(O)CP(=O)(O)OP(=O)(O)OC[C@H]2O[C@@H](n3c[n+](C)c4c(O)nc(N)nc43)[C@H](O)[C@@H]2O)O[C@H]1n1cnc2c(N)ncnc21 [Compound 16, m^7GppCH2ppAmpG]	0.27 ± 0.07		0.0121 ± 0.0005	significantly reduced the susceptibility to decapping
C[n+]1cn([C@@H]2O[C@H](COP(=O)(O)O[P@](=O)([S-])OP(=O)(O)OC[C@H]3O[C@@H](n4cnc5c(N)ncnc54)[C@H](O)[C@@H]3OP(=O)(O)OC[C@H]3O[C@@H](n4cnc5c(=O)[nH]c(N)nc54)[C@H](O)[C@@H]3O)[C@@H](O)[C@H]2O)c2nc(N)nc(O)c21 [Compound 2, m^7GppSpApG]	0.31 ± 0.09		0.0159 ± 0.0009	
COC1C(OP(=O)(O)OCC2OC(n3cnc4c(=O)[nH]c(N)nc43)C(O)C2O)C(COP(=O)(O)OP(=O)([S-])OP(=O)(O)OCC2OC(n3c[n+](C)c4c(O)nc(N)nc43)C(O)C2O)OC1n1cnc2c(N)ncnc21 (stereo not shown) [Compound 4, m^7GppSpAmpG]	0.32 ± 0.10		0.0166 ± 0.0011	
C[n+]1cn([C@@H]2O[C@H](COP(=O)(O)O[P@@](=O)([S-])OP(=O)(O)OC[C@H]3O[C@@H](n4cnc5c(N)ncnc54)[C@H](O)[C@@H]3OP(=O)(O)OC[C@H]3O[C@@H](n4cnc5c(=O)[nH]c(N)nc54)[C@H](O)[C@@H]3O)[C@@H](O)[C@H]2O)c2nc(N)nc(O)c21 [Compound 1, m^7GppSpApG]	0.81 ± 0.16		0.0126 ± 0.0008	
CNc1ncnc2c1ncn2[C@@H]1O[C@H](COP(=O)(O)O[P@@](=O)([S-])OP(=O)(O)OC[C@H]2O[C@@H](n3c[n+](C)c4c(O)nc(N)nc43)[C@H](O)[C@@H]2O)[C@@H](OP(=O)(O)OC[C@H]2O[C@@H](n3cnc4c(=O)[nH]c(N)nc43)[C@H](O)[C@@H]2O)[C@H]1OC [Compound 6, m^7GppSp^m6AmpG]	0.15 ± 0.10		0.0217 ± 0.0006	
